Laboratory results: patent publication US6632809B2, “Gyrase inhibitors and uses thereof” (Vertex Pharmaceuticals Incorporated, priority 2000, dated 2003)

Each molecule was assayed against DNA gyrase (374 kDa Gyr A2B2 subunit from Staphylococcus aureus) (Staphylococcus aureus, UniProt P0A0K8) (assay: Gyrase ATPase Assay). Details: 10 μM concentration; ATPase assay at 30° C., 0.9 mM ATP; average of duplicate values.
Assay type: biochemical
Procedure: The ATP hydrolysis activity of DNA gyrase was measure by coupling the production of ADP through pyruvate kinase/lactate dehydrogenase to the oxidation of NADH. This method has been described previously (Tamura and Gellert, 1990, J. Biol. Chem., 265, 21342).
ATPase assays are carried out at 30° C. in buffered solutions containing 100 mM TRIS pH 7.6, 1.5 mM MgCl2, 50 mM KCl. The coupling system contains (final concentrations) 2.5 mM phosphoenol pyruvate, 200 μM nicotinamide adenine dinucleotide (NADH), 1 mM DTT, […], and 10 ug/ml lactate dehydrogenase. 40 nanomolar enzyme (374 kDa Gyr A2B2 subunit from Staphylococcus aureus) and a DMSO solution of the inhibitor to a final concentration of 4% are added and the reaction mixture is allowed to incubate for 10 minutes at 30° C. The reaction is then started by the addition of ATP to a final concentration of 0.9 mM and the rate of NADH disappearance at 340 nanometers is measured over the course of 10 minutes. The percent inhibition values are determined from rate versus concentration profiles and are reported as the average of duplicate values.
The compound numbers correspond to the compound numbers in Table 1. Compounds having an activity designated as “A” provided a percent inhibition value below 50 percent; compounds having an activity designated as “B” provided a percent inhibition value between 50 and 75 percent; and compounds having an activity designated as “C” provided a percent inhibition value greater than 75 percent.

Chain of DNA gyrase (374 kDa Gyr A2B2 subunit from Staphylococcus aureus) (P0A0K8 whole entry): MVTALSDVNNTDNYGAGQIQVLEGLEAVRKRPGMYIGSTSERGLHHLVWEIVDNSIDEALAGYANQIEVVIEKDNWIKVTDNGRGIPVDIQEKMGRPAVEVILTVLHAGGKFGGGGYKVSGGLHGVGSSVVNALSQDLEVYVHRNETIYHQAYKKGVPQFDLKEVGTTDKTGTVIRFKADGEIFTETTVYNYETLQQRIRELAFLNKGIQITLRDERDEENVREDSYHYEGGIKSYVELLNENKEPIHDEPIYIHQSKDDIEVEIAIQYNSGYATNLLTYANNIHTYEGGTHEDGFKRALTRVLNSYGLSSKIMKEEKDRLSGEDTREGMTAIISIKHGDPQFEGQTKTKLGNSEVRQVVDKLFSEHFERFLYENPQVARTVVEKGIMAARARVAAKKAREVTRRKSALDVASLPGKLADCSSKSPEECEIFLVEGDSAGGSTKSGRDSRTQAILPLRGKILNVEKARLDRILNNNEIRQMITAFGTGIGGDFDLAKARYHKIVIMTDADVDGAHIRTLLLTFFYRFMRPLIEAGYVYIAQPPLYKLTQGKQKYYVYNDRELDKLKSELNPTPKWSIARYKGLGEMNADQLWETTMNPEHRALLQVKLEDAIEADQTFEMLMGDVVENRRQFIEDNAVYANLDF
Chain of DNA gyrase (374 kDa Gyr A2B2 subunit from Staphylococcus aureus) (P20831 whole entry, further chain): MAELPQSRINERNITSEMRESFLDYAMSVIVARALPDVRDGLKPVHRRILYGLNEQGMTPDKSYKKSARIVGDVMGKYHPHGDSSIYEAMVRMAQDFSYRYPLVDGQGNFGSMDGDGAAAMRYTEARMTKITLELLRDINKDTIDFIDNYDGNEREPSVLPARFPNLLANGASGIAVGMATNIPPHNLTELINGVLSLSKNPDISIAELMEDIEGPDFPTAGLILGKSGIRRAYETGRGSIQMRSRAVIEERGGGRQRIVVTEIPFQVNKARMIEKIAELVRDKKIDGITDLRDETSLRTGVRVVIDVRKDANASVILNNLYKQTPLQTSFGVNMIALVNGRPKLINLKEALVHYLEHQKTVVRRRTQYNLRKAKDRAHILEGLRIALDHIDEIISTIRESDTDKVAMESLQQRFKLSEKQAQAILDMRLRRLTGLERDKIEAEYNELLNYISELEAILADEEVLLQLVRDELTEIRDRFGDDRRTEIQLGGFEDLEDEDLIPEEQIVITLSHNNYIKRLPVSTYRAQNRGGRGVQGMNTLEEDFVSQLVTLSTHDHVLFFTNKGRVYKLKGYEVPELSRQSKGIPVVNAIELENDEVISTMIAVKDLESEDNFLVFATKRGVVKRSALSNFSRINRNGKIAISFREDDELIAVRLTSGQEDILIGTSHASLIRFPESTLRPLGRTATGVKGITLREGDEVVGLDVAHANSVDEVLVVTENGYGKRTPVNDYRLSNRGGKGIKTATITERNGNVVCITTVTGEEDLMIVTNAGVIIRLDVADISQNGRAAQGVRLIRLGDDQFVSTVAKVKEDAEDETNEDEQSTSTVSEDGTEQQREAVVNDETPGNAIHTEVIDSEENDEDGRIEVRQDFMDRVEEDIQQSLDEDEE

SMILES	Gyrase Inhibitory Activity (percent inhibition)
CCNC(=S)Nc1nc2cc(-c3ccccc3)ccc2[nH]1 [Ia-36]	A (provided a percent inhibition value below 50 percent)

Same assay, conditions: 10 μM concentration; ATPase assay at 30° C., 0.9 mM ATP; average of duplicate values; read-out: Gyrase Inhibitory Activity (percent inhibition)

SMILES	inhibition at 10 µM [%]
CCNC(=O)Nc1nc2cc(-c3cnc(NCC4CCCO4)nc3)ccc2[nH]1 (centres unmarked) [Ia-47]	> 75
CCNC(=O)Nc1nc2cc(-c3cncc(C(=O)O)c3)ccc2[nH]1 [Ia-60]	> 75
CCNC(=O)Nc1nc2cc(-c3ccccc3)ccc2[nH]1 [Ia-84, 1-Ethyl-3-(5-phenyl-1H-benzoimidazol-2-yl)-urea]	> 75
CCCc1cc(-c2ccccc2)cc2nc(NC(=O)OCC)[nH]c12 [Ia-13]	< 50
CCNC(=O)Nc1nc2cc(-c3cnc(N4CCCC4COC)nc3)ccc2[nH]1 (centres unmarked) [Ia-130]	> 75
CCOC(=O)Nc1nc2cc(-c3cc(F)c(F)cc3F)ccc2[nH]1 [Ia-14]	50 to 75
CCOC(=O)Nc1nc2cc(-c3cccc(OCC)c3)ccc2[nH]1 [Ia-15]	50 to 75
CCNC(=N)Nc1nc2cc(-c3ccccc3)ccc2[nH]1 [Ia-101]	< 50
CCNC(=O)Nc1nc2cc(-c3ccc(OC)nc3)ccc2[nH]1 [Ia-132]	> 75
CCCCNc1nc2cc(-c3cccnc3)ccc2[nH]1 [Ia-73]	< 50
CCOC(=O)Nc1nc2cc(-c3ccccc3)ccc2n1C [Ia-10]	< 50
CCNC(=O)Nc1nc2cc(-c3cnc(N4CCN(C(C)=O)CC4)nc3)ccc2[nH]1 [Ia-113]	> 75
CCOC(=O)Nc1nc2cc(-c3cncc(N)c3)ccc2[nH]1 [Ia-115]	< 50
CCOC(=O)Nc1nc2cc(-c3cnc(NCC(=O)O)nc3)ccc2[nH]1 [Ia-80]	> 75
CCOC(=O)Nc1nc2cc(-c3ccc(OC)nc3)ccc2[nH]1 [Ia-18]	> 75
CCOC(=O)Nc1nc2cc(-c3ccccn3)ccc2[nH]1 [Ia-3]	50 to 75
CCNC(=O)Nc1nc2cc(N3CCOCC3)ccc2[nH]1 [Ia-176]	< 50
CCOC(=O)Nc1nc2cc(-c3ccc(OC)cc3)ccc2[nH]1 [Ia-23]	> 75
CCNC(=O)Nc1nc2cc(-c3cnc(N4CCOCC4)nc3)ccc2[nH]1 [Ia-53]	> 75
CCCNc1nc2cc(-c3cccnc3)ccc2[nH]1 [Ia-74]	< 50
CCNC(=O)Nc1nc2cc(-c3cnc(NC(CO)C(=O)O)nc3)ccc2[nH]1 (centres unmarked) [Ia-45]	> 75
CCNC(=O)Nc1nc2cc(-c3cnc(NCc4ccc(F)c(Cl)c4)nc3)ccc2[nH]1 [Ia-61]	> 75
CCOC(=O)Nc1nc2cc(-c3ccccc3)cc(Br)c2[nH]1 [Ia-19]	> 75
CCOC(=O)Nc1nc2cc(-c3cnc(OC)nc3)ccc2[nH]1 [Ia-22]	> 75
CCNC(=O)Nc1nc2cc(-c3cncc(C(=O)OCC)c3)ccc2[nH]1 [Ia-59]	> 75
CCNC(=O)Nc1nc2cc(-c3cnc(NC(COC(C)(C)C)C(=O)OC(C)(C)C)nc3)ccc2[nH]1 (centres unmarked) [Ia-40]	> 75
CCN/C(=N\C)Nc1nc2cc(-c3ccccc3)ccc2[nH]1 [Ia-97]	< 50

SMILES	inhibition at 10 µM [%]
CCOC(=O)Nc1nc2cc(-c3ccc(=O)[nH]c3)ccc2[nH]1 [Ia-71]	< 50
CCNC(=O)Nc1nc2cc(-c3ccc(F)nc3)ccc2[nH]1 [Ia-136]	> 75
CCNC(=S)Nc1nc2cc(-c3cnc(NCC(=O)OC(C)(C)C)nc3)ccc2[nH]1 [Ia-37]	> 75
CN(C)CCn1c(N)nc2cc(-c3cccnc3)ccc21 [Ia-78]	< 50
CCOC(=O)Nc1nc2cc(-c3cccc(C(=O)OC)c3)ccc2[nH]1 [Ia-81]	50 to 75
CCNC(=O)Nc1nc2cc(-c3ccccc3)cc(Br)c2[nH]1 [Ia-89]	> 75
Nc1nc2cc(-c3ccccc3)ccc2[nH]1 [Ia-6]	< 50
C#CCOC(=O)Nc1nc2cc(-c3ccccc3)ccc2[nH]1 [Ia-8]	< 50
CCOC(=O)Nc1nc2cc(-c3cnc(NCCN)nc3)ccc2[nH]1 [Ia-88]	> 75
O=C(Nc1nc2cc(-c3ccccc3)cc(Br)c2[nH]1)N1CCCCC1 [Ia-20]	< 50
CCNC(=O)Nc1nc2cc(-c3cccnc3)cc(F)c2[nH]1 [Ia-103]	> 75
CCOC(=O)Nc1nc2cc(-c3cnc(N)nc3)ccc2[nH]1 [Ia-72]	> 75
CCNC(=O)Nc1nc2cc(-c3cnc(N)nc3)ccc2[nH]1 [Ia-54]	> 75
CCOC(=O)Nc1nc2cc(-c3cnc(N4CCNCC4)nc3)ccc2[nH]1 [Ia-70]	> 75
CCNC(=O)Nc1nc2cc(-c3cnc(NCCN4CCCC4)nc3)ccc2[nH]1 [Ia-55]	> 75
CCNC(=O)Nc1nc2cc(-c3cnc(N4CCC(O)CC4)nc3)ccc2[nH]1 [Ia-125]	> 75
CCOC(=O)Nc1nc2cc(-c3cnc(NCCNC(=O)OC(C)(C)C)nc3)ccc2[nH]1 [Ia-86]	> 75
CCOC(=O)Nc1nc2cc(-c3cnc(OC)nc3OC)ccc2[nH]1 [Ia-16]	> 75
CCNC(=O)Nc1nc2cc(-c3cnc(NCC(=O)O)nc3)ccc2[nH]1 [Ia-35]	> 75
CCNC(=O)Nc1nc2cc(-c3cnc(NCC)nc3)ccc2[nH]1 [Ia-66]	> 75
CCNC(=O)Nc1nc2cc(-c3cnc(NC4CC4)nc3)ccc2[nH]1 [Ia-44]	> 75
CCNC(=O)Nc1nc2cc(-c3cnc(NC4CCCC4)nc3)ccc2[nH]1 [Ia-57]	> 75
CCNC(=S)Nc1nc2cc(-c3cccnc3)ccc2[nH]1 [Ia-34]	> 75
CCNC(=O)Nc1nc2cc(-c3ccc(CN(C(=O)OC(C)(C)C)C(C)(C)C)nc3)ccc2[nH]1 [Ia-143]	> 75
CCNC(=O)Nc1nc2cc(C(=O)O)ccc2[nH]1 [Ia-33]	< 50
CCCN(CC1CC1)c1ncc(-c2ccc3[nH]c(NC(=O)NCC)nc3c2)cn1 [Ia-127]	> 75
CCNC(=O)Nc1nc2cc(-c3cnc(N4CCC(O)C4)nc3)ccc2[nH]1 (centres unmarked) [Ia-129]	> 75

SMILES	inhibition at 10 µM [%]
CCNC(=O)Nc1nc2cc(-c3cnc(NCc4cccc(F)c4)nc3)ccc2[nH]1 [Ia-56]	> 75
CCOC(=O)Nc1nc2cc(-c3cnc(N4CCN(S(C)(=O)=O)CC4)nc3)ccc2[nH]1 [Ia-91]	< 50
CCNC(=O)Nc1nc2cc(-c3cnc(OC)nc3OC)ccc2[nH]1 [Ia-52]	> 75
CCOC(=O)Nc1nc2cc(-c3cnc(N4CCN(C(=O)OC(C)(C)C)CC4)nc3)ccc2[nH]1 [Ia-69]	50 to 75
CCNC(=O)Nc1nc2cc(-c3cnc(N)nc3)c(OC)cc2[nH]1 [Ia-126]	> 75
CCOC(=O)Nc1nc2cc(-c3cccc(C(=O)O)c3)ccc2[nH]1 [Ia-24]	> 75
CCOC(=O)Nc1nc2cc(-c3ccc(OC)c(OC)c3)ccc2[nH]1 [Ia-26]	50 to 75
CCOC(=O)Nc1nc2cc(-c3cccnc3)ccc2[nH]1 [Ia-11, (5-Pyridin-3-yl-1H-benzoimidazol-2-yl)-carbamic acid ethyl ester]	> 75
CCOC(=O)Nc1nc2cc(-c3ccccc3C(F)(F)F)ccc2[nH]1 [Ia-9]	< 50
CCNC(=O)Nc1nc2cc(-c3cnc(N4CCN(C)CC4)nc3)ccc2[nH]1 [Ia-64]	> 75
COC(=O)Nc1nc2cc(-c3cnc(NCC(=O)OC(C)(C)C)nc3)ccc2[nH]1 [Ia-76]	> 75
CCNC(=O)Nc1nc2cc(-c3cnc(NC(C)COC)nc3)ccc2[nH]1 (centres unmarked) [Ia-100]	> 75
CCNC(=O)Nc1nc2cc(-c3cnc(N)nc3)c(F)cc2[nH]1 [Ia-131]	> 75
CCNC(=O)Nc1nc2cc(-c3ccc(CNC(=O)OC(C)(C)C)cc3)ccc2[nH]1 [Ia-135]	> 75
O=C(Nc1nc2cc(-c3cccnc3)ccc2[nH]1)NC1CC1 [Ia-38]	50 to 75
CCOC(=O)Nc1nc2cc(-c3ccccc3)ccc2[nH]1 [Ia-1]	50 to 75
CCNC(=O)Nc1nc2cc(-c3cnc(N4CCN(S(C)(=O)=O)CC4)nc3)ccc2[nH]1 [Ia-124]	50 to 75
CCOC(=O)Nc1nc2cc(-c3cnc(NC(COC(C)(C)C)C(=O)OC(C)(C)C)nc3)ccc2[nH]1 (centres unmarked) [Ia-93]	> 75
CCNC(=O)Nc1nc2cc(-n3cc(C(=O)N4CCOCC4)cn3)ccc2[nH]1 [Ia-172]	> 75
CCOC(=O)Nc1nc2cc(-c3ccc4[nH]c(NC(=O)OCC)nc4c3)ccc2[nH]1 [Ia-67]	> 75
CCNC(=O)Nc1nc2cc(-c3ccccc3)cc(OC)c2[nH]1 [Ia-50]	50 to 75
CCNC(=O)Nc1nc2cc(-c3cccc(F)c3)ccc2[nH]1 [Ia-155]	< 50
CCOC(=O)Nc1cncc(-c2ccc3[nH]c(NC(=O)OCC)nc3c2)c1 [Ia-87]	> 75
CCNC(=O)Nc1nc2cc(-c3cccnc3)cc(OC)c2[nH]1 [Ia-108]	> 75
CCOC(=O)Nc1ncc(-c2ccc3[nH]c(NC(=O)OCC)nc3c2)cn1 [Ia-77]	> 75
